Laboratory results published in PubChem BioAssay AID330 (DTP/NCI, 2004).
Several values for one entry are separate records, joined by “and”; a condition that tells them apart may be missing. Identical values can stand only once. Inconclusive results and toxic doses are left out.

System: P388 leukemia ip, CD2F1 mice, survival T/C
Experiment: NCI In Vivo Anticancer Drug Screen. Data for tumor model P388 Leukemia (intraperitoneal) in CD2F1 (CDF1) mice
Details: endpoint: median survival time, higher = longer survival
How it was run: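 Mice carrying the transplanted tumor received test compound or vehicle. Survival was recorded in each group, and the value is the treated-group measurement divided by that of the vehicle-treated control group.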

[1] = dose: 50.0 mg/kg/injection, schedule: Q01DX009 (ip), vehicle: saline with Tween-80
[2] = dose: 100.0 mg/kg/injection, schedule: Q01DX009 (ip), vehicle: saline with Tween-80
[3] = dose: 200.0 mg/kg/injection, schedule: Q01DX009 (ip), vehicle: saline with Tween-80
[4] = dose: 25.0 mg/kg/injection, schedule: Q04DX003 (ip), vehicle: saline with Tween-80
[5] = dose: 50.0 mg/kg/injection, schedule: Q04DX003 (ip), vehicle: saline with Tween-80
[6] = dose: 100.0 mg/kg/injection, schedule: Q04DX003 (ip), vehicle: saline with Tween-80
[7] = dose: 60.0 mg/kg/injection, schedule: Q01DX005 (ip), vehicle: saline with Tween-80
[8] = dose: 120.0 mg/kg/injection, schedule: Q01DX005 (ip), vehicle: saline with Tween-80
[9] = dose: 240.0 mg/kg/injection, schedule: Q01DX005 (ip), vehicle: saline with Tween-80
[10] = dose: 25.0 mg/kg/injection, schedule: Q01DX005 (ip), vehicle: Klucel (hydroxypropylcellulose) (HPC)
[11] = dose: 50.0 mg/kg/injection, schedule: Q01DX005 (ip), vehicle: Klucel (hydroxypropylcellulose) (HPC)
[12] = dose: 100.0 mg/kg/injection, schedule: Q01DX005 (ip), vehicle: Klucel (hydroxypropylcellulose) (HPC)
[13] = dose: 200.0 mg/kg/injection, schedule: Q01DX005 (ip), vehicle: Klucel (hydroxypropylcellulose) (HPC)
[14] = dose: 100.0 mg/kg/injection, schedule: Q04DX002 (ip), vehicle: saline with Tween-80
[15] = dose: 200.0 mg/kg/injection, schedule: Q04DX002 (ip), vehicle: saline with Tween-80
[16] = dose: 50.0 mg/kg/injection, schedule: Q01DX005 (ip), vehicle: saline with Tween-80
[17] = dose: 100.0 mg/kg/injection, schedule: Q01DX005 (ip), vehicle: saline with Tween-80
[18] = dose: 50.0 mg/kg/injection, schedule: Q01DX005 (ip), vehicle: saline
[19] = dose: 100.0 mg/kg/injection, schedule: Q01DX005 (ip), vehicle: saline

SMILES: CCCCCCC1(/C=C\c2ccccc2Cl)OCCO1
- T/C (dose: 50.0 mg/kg/injection, schedule: Q01DX009 (ip), vehicle: Klucel (hydroxypropylcellulose) (HPC)): 103 % of control
- T/C (dose: 100.0 mg/kg/injection, schedule: Q01DX009 (ip), vehicle: Klucel (hydroxypropylcellulose) (HPC)): 94 % of control
- T/C (dose: 200.0 mg/kg/injection, schedule: Q01DX009 (ip), vehicle: Klucel (hydroxypropylcellulose) (HPC)): 108 % of control

SMILES: COC(=O)c1ccc2cc1Nc1c(C#N)cnc(=S)n1-2
- T/C [1]: 114 % of control
- T/C [2]: 112 % of control
- T/C [3]: 90 % of control

SMILES: CC(C)=NNc1cc(N)nc2c1ncn2C1OC(CO)C(O)C1O (stereo not drawn)
- T/C (dose: 12.5 mg/kg/injection, schedule: Q01DX005 (ip), vehicle: water): 97 % of control
- T/C (dose: 25.0 mg/kg/injection, schedule: Q01DX005 (ip), vehicle: water): 94 % of control
- T/C (dose: 50.0 mg/kg/injection, schedule: Q01DX005 (ip), vehicle: water): 98 % of control
- T/C (dose: 100.0 mg/kg/injection, schedule: Q01DX005 (ip), vehicle: water): 96 % of control
- T/C (dose: 200.0 mg/kg/injection, schedule: Q01DX005 (ip), vehicle: water): 106 % of control

SMILES: O=C([O][Hg][CH2]C1COC([CH2][Hg][O]C(=O)c2ccccc2)CO1)c1ccccc1 (stereo not drawn)
- T/C (dose: 25.0 mg/kg/injection, schedule: Q01DX009 (ip), vehicle: saline with Tween-80): 120 % of control
- T/C [4]: 104 % of control
- T/C [1]: 120 % of control
- T/C [5]: 90 % of control
- T/C [6]: 95 % of control

SMILES: O=NNc1ccc(Cl)nc1
- T/C (dose: 3.12 mg/kg/injection, schedule: Q01DX009 (ip), vehicle: saline): 109 % of control
- T/C (dose: 6.25 mg/kg/injection, schedule: Q01DX009 (ip), vehicle: saline): 110 % of control
- T/C (dose: 12.5 mg/kg/injection, schedule: Q01DX009 (ip), vehicle: saline): 106 % of control
- T/C (dose: 25.0 mg/kg/injection, schedule: Q01DX009 (ip), vehicle: saline): 106 % of control
- T/C (dose: 50.0 mg/kg/injection, schedule: Q01DX009 (ip), vehicle: saline): 107 % of control

SMILES: CCCCOC1NC(=O)NC(=O)C1(F)C(=O)OCC (stereo not drawn)
- T/C [7]: 108 % of control
- T/C [8]: 117 % of control
- T/C [9]: 121 % of control

SMILES: COc1cc2c(c(C(C)(C)C)c1)OC1(O)C2=CC(=O)C=C1C(C)(C)C (stereo not drawn)
- T/C (dose: 6.25 mg/kg/injection, schedule: Q01DX005 (ip), vehicle: Klucel (hydroxypropylcellulose) (HPC)): 120 % of control
- T/C (dose: 12.5 mg/kg/injection, schedule: Q01DX005 (ip), vehicle: Klucel (hydroxypropylcellulose) (HPC)): 120 % of control
- T/C [10]: 114 % of control
- T/C [11]: 110 % of control
- T/C [12]: 107 % of control

SMILES: CCOC(=O)/C(=C(\C)N)n1[nH]c(=O)n(-c2ccccc2)c1=O
- T/C [10]: 98 % of control
- T/C [11]: 100 % of control and 103 % of control
- T/C [12]: 101 % of control and 96 % of control
- T/C [13]: 98 % of control and 103 % of control

SMILES: Oc1ccc(C/C=C/c2ccccc2)cc1O
- T/C (dose: 2.5 mg/kg/injection, schedule: Q01DX009 (ip), vehicle: saline + alcohol): 104 % of control
- T/C (dose: 5.0 mg/kg/injection, schedule: Q01DX009 (ip), vehicle: saline + alcohol): 104 % of control
- T/C (dose: 10.0 mg/kg/injection, schedule: Q01DX009 (ip), vehicle: saline + alcohol): 101 % of control

SMILES: CSc1nnc(CCC(=O)Nc2cc(Cl)c(Cl)cc2Cl)o1
- T/C [7]: 106 % of control
- T/C [8]: 105 % of control
- T/C [9]: 98 % of control

SMILES: C[n+]1cccc2c1C(=O)C(=O)c1c-2ccc[n+]1C
- T/C [14]: 120 % of control
- T/C [15]: 105 % of control

SMILES: COc1ccc(C(Nc2ccccn2)c2cc(C(C)(C)C)cc(C(C)(C)C)c2O)cc1 (stereo not drawn)
- T/C (dose: 50.0 mg/kg/injection, schedule: Q01DX005 (ip), vehicle: distilled water + alcohol): 105 % of control
- T/C (dose: 100.0 mg/kg/injection, schedule: Q01DX005 (ip), vehicle: distilled water + alcohol): 100 % of control
- T/C (dose: 200.0 mg/kg/injection, schedule: Q01DX005 (ip), vehicle: distilled water + alcohol): 109 % of control

SMILES: O=C1OCc2cc3c(cc2-c2ccccc21)OCO3
- T/C [14]: 95 % of control
- T/C [15]: 101 % of control
- T/C (dose: 400.0 mg/kg/injection, schedule: Q04DX002 (ip), vehicle: saline with Tween-80): 91 % of control

SMILES: Cc1nn(C)pc1P(C)(=S)n1nc(N(C)C)np1 (stereo not drawn)
- T/C [11]: 98 % of control
- T/C [12]: 103 % of control

SMILES: CC(C)=C/C(C)=N/NC(N)=O
- T/C (dose: 12.5 mg/kg/injection, schedule: Q04DX003 (ip), vehicle: saline with Tween-80): 98 % of control
- T/C [4]: 94 % of control
- T/C [5]: 91 % of control
- T/C [6]: 94 % of control

SMILES: S=C1SCN(Cc2ccccc2)CN1Cc1ccccc1
- T/C [1]: 100 % of control
- T/C [2]: 93 % of control
- T/C [3]: 89 % of control

SMILES: C/C(CCl)=N/NC1=NC(c2ccccc2Cl)P(=O)(NCCCNP2(=O)SC(N/N=C(/C)CCl)=NC2c2ccccc2Cl)S1 (stereo not drawn)
- T/C [7]: 99 % of control
- T/C [8]: 98 % of control
- T/C [9]: 93 % of control

SMILES: CCCSc1nn2cc(NC(=O)OC)nc2s1
- T/C [16]: 97 % of control
- T/C [17]: 100 % of control
- T/C (dose: 200.0 mg/kg/injection, schedule: Q01DX005 (ip), vehicle: saline with Tween-80): 103 % of control

SMILES: O=c1[nH]cc(CN(CCO)CCO)c(=O)[nH]1
- T/C [18]: 106 % of control
- T/C [19]: 105 % of control
- T/C (dose: 200.0 mg/kg/injection, schedule: Q01DX005 (ip), vehicle: saline): 99 % of control

SMILES: CCOC(=O)C1=S=C(SC)N(C)C1=O
- T/C [1]: 107 % of control
- T/C [2]: 107 % of control

SMILES: COc1cc(/C=C2/Cc3ccccc3C2=O)ccc1O
- T/C (dose: 60.0 mg/kg/injection, schedule: Q01DX005 (ip), vehicle: saline): 106 % of control
- T/C (dose: 120.0 mg/kg/injection, schedule: Q01DX005 (ip), vehicle: saline): 106 % of control
- T/C (dose: 240.0 mg/kg/injection, schedule: Q01DX005 (ip), vehicle: saline): 96 % of control

SMILES: CC1(C)C2CCC1(CS(=O)O)C(=O)C2.[Ag] (stereo not drawn)
- T/C [16]: 111 % of control
- T/C [17]: 105 % of control

SMILES: CC(N1CCOCC1)C(O)(c1ccccc1)c1ccccn1 (stereo not drawn)
- T/C (dose: 50.0 mg/kg/injection, schedule: Q01DX005 (ip), vehicle: saline + alcohol): 103 % of control
- T/C (dose: 100.0 mg/kg/injection, schedule: Q01DX005 (ip), vehicle: saline + alcohol): 115 % of control

SMILES: CCOC(=O)c1c[nH]n2ccnc12
- T/C [14]: 100 % of control
- T/C [15]: 103 % of control

SMILES: CCN1C(=O)CC(SC2CC(=O)N(CC)C2=O)C1=O (stereo not drawn)
- T/C [11]: 99 % of control
- T/C [12]: 95 % of control
- T/C [13]: 99 % of control

SMILES: Cc1cc(N)c([N+](=O)[O-])cc1C
- T/C [1]: 101 % of control
- T/C [2]: 100 % of control
- T/C [3]: 96 % of control
- T/C (dose: 400.0 mg/kg/injection, schedule: Q01DX009 (ip), vehicle: saline with Tween-80): 95 % of control

SMILES: c1cc[c]([Sn]2([c]3ccccc3)[O]CCNCC[O]2)cc1
- T/C (dose: 25.0 mg/kg/injection, schedule: Q01DX005 (ip), vehicle: saline): 150 % of control
- T/C [18]: 153 % of control
- T/C [19]: 155 % of control and 160 % of control

SMILES: CCCCCc1ccccc1
- T/C [2]: 106 % of control
- T/C [3]: 109 % of control

SMILES: CCOC(=O)N1C=CC2(C=C1)CCCC2
- T/C (dose: 50.0 mg/kg/injection, schedule: Q01DX001 (ip), vehicle: Klucel (hydroxypropylcellulose) (HPC)): 108 % of control
- T/C (dose: 100.0 mg/kg/injection, schedule: Q01DX001 (ip), vehicle: Klucel (hydroxypropylcellulose) (HPC)): 102 % of control
- T/C (dose: 200.0 mg/kg/injection, schedule: Q01DX001 (ip), vehicle: Klucel (hydroxypropylcellulose) (HPC)): 102 % of control

SMILES: CC(C)c1cc2c(cc1O)C(O)C1(O)CCCC(C)(C)[C@H]1CC2 (stereo partly drawn)
- T/C (dose: 7.5 mg/kg/injection, schedule: Q01DX005 (ip), vehicle: other): 104 % of control
- T/C (dose: 15.0 mg/kg/injection, schedule: Q01DX005 (ip), vehicle: other): 100 % of control
- T/C (dose: 30.0 mg/kg/injection, schedule: Q01DX005 (ip), vehicle: other): 86 % of control
- T/C (dose: 60.0 mg/kg/injection, schedule: Q01DX005 (ip), vehicle: other): 94 % of control

SMILES: COC(=O)c1nn(Cc2ccccc2)cc1C=O
- T/C [7]: 99 % of control
- T/C [8]: 92 % of control
- T/C [9]: 92 % of control
